In patent US20070093520A1, “Method of treatment of diarrhea-predominant irritable bowel syndrome in a subject” (priority 2005, published 2007):

System: diarrhea-predominant IBS subjects
Assay: 3007 Study: open-label 52-week safety study, adverse events and withdrawals
Details: Overall

## Cc1nccn1C[C@H]1CCc2c(c3cccc4c3n2CCC4)C1=O [cilansetron, (R)-(−)-4,5,6,8,9,10-hexahydro-10-[(2-methyl-1H-imidazol-1-yl)methyl]-11H-pyrido-[3,2,1-jk]-carbazol-11-one]
  TEAE: Atopic Disorders: 5 (<1%) n (%)
  TEAE: Atrial Fibrillation: 1 (<1%) n (%)
  TEAE: Atrioventricular Block First Degree: 1 (<1%) n (%)
  TEAE: Back Injury NOS: 3 (<1%) n (%)
  TEAE: Back Pain: 18 (3%) n (%)
  TEAE: Back Pain Aggravated: 3 (<1%) n (%)
  TEAE: Bacteria Identification and Serology (Excl Mycobacteria): 1 (<1%) n (%)
  TEAE: Basal Cell Carcinoma: 6 (1%) n (%)
  TEAE: Behaviour and Socialisation Disturbances: 1 (<1%) n (%)
  TEAE: Benign Ovarian Tumour*: 1 (<1%) n (%)
  TEAE: Biliary Tract Disorder NOS: 1 (<1%) n (%)
  TEAE: Bilirubin Urine: 1 (<1%) n (%)
  TEAE: Binocular Eye Movement Disorder NOS: 1 (<1%) n (%)
  TEAE: Bladder Disorders NEC: 1 (<1%) n (%)
  TEAE: Bladder Infection NOS: 1 (<1%) n (%)
  TEAE: Bladder Infections and Inflammations: 1 (<1%) n (%)
  TEAE: Bladder Prolapse: 1 (<1%) n (%)
  TEAE: Bladder and Urethral Symptoms: 7 (1%) n (%)
  TEAE: Blood Alkaline Phosphatase NOS Increased: 3 (<1%) n (%)
  TEAE: Blood Bilirubin Increased: 4 (<1%) n (%)
  TEAE: Blood Cholesterol Increased: 19 (4%) n (%)
  TEAE: Blood Creatine Phosphokinase Increased: 27 (5%) n (%)
  TEAE: Blood Creatine Phosphokinase Mb Increased: 1 (<1%) n (%)
  TEAE: Blood Creatinine Increased: 4 (<1%) n (%)
  TEAE: Blood Glucose Increased: 2 (<1%) n (%)
  TEAE: Blood Potassium Increased: 1 (<1%) n (%)
  TEAE: Blood Pressure Increased: 5 (<1%) n (%)
  TEAE: Blood Sodium Increased: 1 (<1%) n (%)
  TEAE: Blood Triglycerides Increased: 10 (2%) n (%)
  TEAE: Blood Uric Acid Increased: 2 (<1%) n (%)
  TEAE: Blood Urine Present: 10 (2%) n (%)
  TEAE: Blood and Lymphatic System Disorders: 5 (<1%) n (%)
  TEAE: Blood in Stool: 8 (1%) n (%)
  TEAE: Bone Density Decreased: 1 (<1%) n (%)
  TEAE: Bone Disorder NOS: 1 (<1%) n (%)
  TEAE: Bone Disorders NEC: 3 (<1%) n (%)
  TEAE: Bone Injury: 1 (<1%) n (%)
  TEAE: Bone Neoplasm Malignant: 1 (<1%) n (%)
  TEAE: Bone Neoplasms Malignant (Excl Sarcomas): 1 (<1%) n (%)
  TEAE: Bone Spur: 1 (<1%) n (%)
  TEAE: Bradyarrhythmia: 1 (<1%) n (%)
  TEAE: Breast Calcifications*: 1 (<1%) n (%)
  TEAE: Breast Cancer NOS*: 2 (<1%) n (%)
  TEAE: Breast Disorder NOS*: 1 (<1%) n (%)
  TEAE: Breast Disorders NEC*: 5 (1%) n (%)
  TEAE: Breast Mass NOS*: 3 (<1%) n (%)
  TEAE: Breast and Nipple Neoplasms Malignant*: 2 (<1%) n (%)
  TEAE: Breath Sounds Decreased: 1 (<1%) n (%)
  TEAE: Breathing Abnormalities: 3 (<1%) n (%)
  TEAE: Bronchitis Acute NOS: 3 (<1%) n (%)
  TEAE: Bronchitis NOS: 23 (4%) n (%)
  TEAE: Bronchopneumonia NOS: 1 (<1%) n (%)
  TEAE: Bronchospasm and Obstruction: 4 (<1%) n (%)
  TEAE: Bruising, Ecchymosis and Purpura: 1 (<1%) n (%)
  TEAE: Bundle Branch Block Right: 1 (<1%) n (%)
  TEAE: Bunion: 2 (<1%) n (%)
  TEAE: Bursal Disorders: 6 (1%) n (%)
  TEAE: Bursitis: 3 (<1%) n (%)
  TEAE: Calculus Renal NOS: 3 (<1%) n (%)
  TEAE: Calculus Ureteric: 1 (<1%) n (%)
  TEAE: Candida Infections: 4 (<1%) n (%)
  TEAE: Candidal Infection NOS: 2 (<1%) n (%)
  TEAE: Carbohydrate Tolerance Analyses (Incl Diabetes): 2 (<1%) n (%)
  TEAE: Cardiac Auscultatory Investigations: 1 (<1%) n (%)
  TEAE: Cardiac Conduction Disorders: 2 (<1%) n (%)
  TEAE: Cardiac Disorders: 16 (3%) n (%)
  TEAE: Cardiac Fibrillation NOS: 1 (<1%) n (%)
  TEAE: Cardiac Flutter: 1 (<1%) n (%)
  TEAE: Cardiac Murmur NOS: 1 (<1%) n (%)
  TEAE: Cardiac Signs and Symptoms NEC: 4 (<1%) n (%)
  TEAE: Carotid Bruit: 1 (<1%) n (%)
  TEAE: Carpal Tunnel Syndrome: 3 (<1%) n (%)
  TEAE: Cartilage Disorder NOS: 1 (<1%) n (%)
  TEAE: Cartilage Disorders: 1 (<1%) n (%)
  TEAE: Cataract Unilateral: 1 (<1%) n (%)
  TEAE: Cataracts (Excl Congenital): 2 (<1%) n (%)
  TEAE: Cellulitis: 1 (<1%) n (%)
  TEAE: Cerumen Impaction: 2 (<1%) n (%)
  TEAE: Cervical Spasm: 1 (<1%) n (%)
  TEAE: Change in Bowel Habit NOS: 1 (<1%) n (%)
  TEAE: Chapped Lips: 1 (<1%) n (%)
  TEAE: Chest Discomfort: 1 (<1%) n (%)
  TEAE: Chest Pain: 7 (1%) n (%)
  TEAE: Chest Tightness: 1 (<1%) n (%)
  TEAE: Chest Wall Pain: 2 (<1%) n (%)
  TEAE: Cholecystitis and Cholelithiasis: 2 (<1%) n (%)
  TEAE: Cholelithiasis: 2 (<1%) n (%)
  TEAE: Cholesterol Analyses: 19 (4%) n (%)
  TEAE: Colitis (Excl Infective): 1 (<1%) n (%)
  TEAE: Colitis Ischaemic: 1 (<1%) n (%)
  TEAE: Colonic Polyp: 1 (<1%) n (%)
  TEAE: Congenital, Familial and Genetic Disorders: 1 (<1%) n (%)
  TEAE: Conjunctival Infections, Irritations and Inflammations: 2 (<1%) n (%)
  TEAE: Conjunctivitis: 1 (<1%) n (%)
  TEAE: Conjunctivitis Allergic: 1 (<1%) n (%)
  TEAE: Connective Tissue Disorders (Excl Le): 4 (<1%) n (%)
  TEAE: Constipation: 128 (24%) n (%)
  TEAE: Contusion: 3 (<1%) n (%)
  TEAE: Cough: 11 (2%) n (%)
  TEAE: Coughing and Associated Symptoms: 12 (2%) n (%)
  TEAE: Cyst NOS: 1 (<1%) n (%)
  TEAE: Cystitis Interstitial: 1 (<1%) n (%)
  TEAE: Cystitis NOS: 1 (<1%) n (%)
  TEAE: Dacryostenosis Acquired: 1 (<1%) n (%)
  TEAE: Deafness NOS: 1 (<1%) n (%)
  TEAE: Dehydration: 2 (<1%) n (%)
  TEAE: Dental Disorders NEC: 1 (<1%) n (%)
  TEAE: Dental Infections - Pathogen Class Unspecified: 11 (2%) n (%)
  TEAE: Dental Pain and Sensation Disorders: 3 (<1%) n (%)
  TEAE: Depression: 9 (2%) n (%)
  TEAE: Depression Aggravated: 4 (<1%) n (%)
  TEAE: Depressive Disorders: 13 (2%) n (%)
  TEAE: Dermal and Epidermal Conditions NEC: 5 (<1%) n (%)
  TEAE: Dermatitis Allergic: 1 (<1%) n (%)
  TEAE: Dermatitis Ascribed to Specific Agent: 1 (<1%) n (%)
  TEAE: Dermatitis Contact: 2 (<1%) n (%)
  TEAE: Dermatitis Medicamentosa: 1 (<1%) n (%)
  TEAE: Dermatitis NOS: 1 (<1%) n (%)
  TEAE: Dermatitis and Eczema: 6 (1%) n (%)
  TEAE: Dermographism: 1 (<1%) n (%)
  TEAE: Diabetes Mellitus (Incl Subtypes): 3 (<1%) n (%)
  TEAE: Diabetes Mellitus Aggravated: 2 (<1%) n (%)
  TEAE: Diabetes Mellitus Non-Insulin-Dependent: 1 (<1%) n (%)
  TEAE: Diaphragmatic Hernias: 2 (<1%) n (%)
  TEAE: Diarrhoea (Excl Infective): 39 (7%) n (%)
  TEAE: Diarrhoea Aggravated: 5 (<1%) n (%)
  TEAE: Diarrhoea Haemorrhagic: 2 (<1%) n (%)
  TEAE: Diarrhoea NOS: 31 (6%) n (%)
  TEAE: Disturbances in Consciousness NEC: 4 (<1%) n (%)
  TEAE: Disturbances in Initiating and Maintaining Sleep: 6 (1%) n (%)
  TEAE: Diverticulitis NOS: 2 (<1%) n (%)
  TEAE: Diverticulum Inflammations: 2 (<1%) n (%)
  TEAE: Dizziness: 6 (1%) n (%)
  TEAE: Drug Hypersensitivity: 1 (<1%) n (%)
  TEAE: Dry Eye NOS: 2 (<1%) n (%)
  TEAE: Dry Mouth: 2 (<1%) n (%)
  TEAE: Dysarthria: 1 (<1%) n (%)
  TEAE: Dysfunctional Uterine Bleeding*: 1 (<1%) n (%)
  TEAE: Dyshidrosis: 1 (<1%) n (%)
  TEAE: Dyskinesias and Movement Disorders NEC: 1 (<1%) n (%)
  TEAE: Dyspepsia: 13 (2%) n (%)
  TEAE: Dyspepsia Aggravated: 2 (<1%) n (%)
  TEAE: Dyspeptic Signs and Symptoms: 17 (3%) n (%)
  TEAE: Dyspnoea NOS: 3 (<1%) n (%)
  TEAE: Dysuria: 1 (<1%) n (%)
  TEAE: ECG Investigations: 2 (<1%) n (%)
  TEAE: Ear Disorders NEC: 2 (<1%) n (%)
  TEAE: Ear Infection NOS: 4 (<1%) n (%)
  TEAE: Ear Infections: 5 (<1%) n (%)
  TEAE: Ear Pain: 2 (<1%) n (%)
  TEAE: Ear and Labyrinth Disorders: 10 (2%) n (%)
  TEAE: Eczema: 2 (<1%) n (%)
  TEAE: Electrocardiogram Qrs Complex Abnormal: 1 (<1%) n (%)
  TEAE: Electrocardiogram T Wave Inversion: 1 (<1%) n (%)
  TEAE: Elevated Cholesterol: 6 (1%) n (%)
  TEAE: Endocrine Disorders: 4 (<1%) n (%)
  TEAE: Endometriosis*: 2 (<1%) n (%)
  TEAE: Enteritis: 1 (<1%) n (%)
  TEAE: Epigastric Discomfort: 1 (<1%) n (%)
  TEAE: Eructation: 2 (<1%) n (%)
  TEAE: Erythema: 1 (<1%) n (%)
  TEAE: Erythemas: 1 (<1%) n (%)
  TEAE: External Ear Disorders NEC: 2 (<1%) n (%)
  TEAE: Eye Disorders: 13 (2%) n (%)
  TEAE: Eye Injuries NEC: 1 (<1%) n (%)
  TEAE: Faecal Abnormality NOS: 2 (<1%) n (%)
  TEAE: Faecal Impaction: 1 (<1%) n (%)
  TEAE: Faecal Incontinence: 4 (<1%) n (%)
  TEAE: Faecal Occult Blood Positive: 31 (6%) n (%)
